According to ChEMBL document CHEMBL1201862, “PubChem BioAssay data set” (2004):
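1) Cells in 96-well plates. 2) Compound, 48 h, 5 concentrations. 3) Linear interpolation between surrounding doses. 4) Unreached endpoint = highest concentration. GI50 = concentration required for 50% inhibition of growth.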 The source made the active and inactive calls. No stated cut-off is given here; in the data, active = GI50 up to about 1.1 µM and inactive = higher.

Key:
Experiment in all cases: DTP human tumour cell line panel, 48 h
BT-549 = test system: BT-549
CCRF-CEM = test system: CCRF-CEM
HCT-116 = test system: HCT-116
HT-29 = test system: HT-29
Hs-578T = test system: Hs-578T
KM12 = test system: KM12
MCF7 = test system: MCF7
MDA-MB-435 = test system: MDA-MB-435
NCI-H226 = test system: NCI-H226
NCI/ADR-RES = test system: NCI/ADR-RES
OVCAR-3 = test system: OVCAR-3
OVCAR-8 = test system: OVCAR-8
SF-539 = test system: SF-539
SK-MEL-28 = test system: SK-MEL-28
SK-MEL-2 = test system: SK-MEL-2
SK-MEL-5 = test system: SK-MEL-5
SN12C = test system: SN12C
SNB-19 = test system: SNB-19
T47D = test system: T47D
UACC-257 = test system: UACC-257

Measured: GI50

c1ccc(C(/C(=N/c2ccc(Cc3ccc(/N=C(\C(c4ccccc4)c4ccccc4)N4CC4)cc3)cc2)N2CC2)c2ccccc2)cc1
inactive: BT-549 10.5 µM | CCRF-CEM 3.18 µM | HCT-116 4.36 µM | HT-29 3.1 µM | Hs-578T 10.6 µM | KM12 6.28 µM | MCF7 3.1 µM | MDA-MB-435 8.73 µM | NCI-H226 14.7 µM | NCI/ADR-RES 9.25 µM | OVCAR-3 3.66 µM | OVCAR-8 10.7 µM | SF-539 16.3 µM | SK-MEL-28 9.46 µM | SK-MEL-2 7.01 µM | SK-MEL-5 5.04 µM | SN12C 14.3 µM | SNB-19 13.1 µM | T47D 2.61 µM | UACC-257 11.6 µM

N#Cc1ccc(CSC2=C(c3ccc(Cl)cc3)S/C(=C3\SC(SCc4ccc(C#N)cc4)=C(c4ccc(Cl)cc4)S3)S2)cc1
inactive: BT-549 > 100 µM | CCRF-CEM > 100 µM | HCT-116 > 100 µM | HT-29 > 100 µM | Hs-578T > 100 µM | KM12 > 100 µM | MCF7 > 100 µM | MDA-MB-435 > 100 µM | NCI-H226 > 100 µM | NCI/ADR-RES > 100 µM | OVCAR-3 > 100 µM | OVCAR-8 > 100 µM | SF-539 > 100 µM | SK-MEL-28 > 100 µM | SK-MEL-2 > 100 µM | SK-MEL-5 > 100 µM | SN12C > 100 µM | SNB-19 > 100 µM | T47D > 100 µM | UACC-257 > 100 µM
